Measurements published in ChEMBL document CHEMBL2440076, “New triarylpyrazoles as broad-spectrum anticancer agents: design, synthesis, and biological evaluation” (Eur J Med Chem, 2013).

Key:
SK-OV-3 = experiment: Growth inhibition of human SKOV3 cells assessed as cell growth at 10 uM after 48 hrs by sulforhodamine B assay; format: functional; conditions: SK-OV-3, 48 h, read-out: Activity
HCT-116 = experiment: Growth inhibition of human HCT116 cells assessed as cell growth at 10 uM after 48 hrs by sulforhodamine B assay; format: functional; conditions: HCT-116, 48 h, read-out: Activity
T47D = experiment: Growth inhibition of human T47D cells after 48 hrs by sulforhodamine B assay; format: functional
SW-620 = experiment: Growth inhibition of human SW620 cells after 48 hrs by sulforhodamine B assay; format: functional; conditions: SW-620, 48 h
786-0 = experiment: Growth inhibition of human 786-0 cells assessed as cell growth at 10 uM after 48 hrs by sulforhodamine B assay; format: functional; conditions: 786-0, 48 h, read-out: Activity
HT-29 [1] = experiment: Growth inhibition of human HT-29 cells assessed as cell growth at 10 uM after 48 hrs by sulforhodamine B assay; format: functional; conditions: HT-29, 48 h, read-out: Activity
[2] = Growth inhibition of human NCI-ADR-RES cells after 48 hrs by sulforhodamine B assay; format: functional
U-251 [3] = experiment: Growth inhibition of human U251 cells after 48 hrs by sulforhodamine B assay; format: functional; conditions: U-251, 48 h
SF-539 = experiment: Growth inhibition of human SF539 cells after 48 hrs by sulforhodamine B assay; format: functional; conditions: SF-539, 48 h
UACC-257 = experiment: Growth inhibition of human UACC257 cells assessed as cell growth at 10 uM after 48 hrs by sulforhodamine B assay; format: functional; conditions: UACC-257, 48 h, read-out: Activity
SNB-19 = experiment: Growth inhibition of human SNB19 cells assessed as cell growth at 10 uM after 48 hrs by sulforhodamine B assay; format: functional; conditions: SNB-19, 48 h, read-out: Activity
NCI-H23 = experiment: Growth inhibition of human NCI-H23 cells assessed as cell growth at 10 uM after 48 hrs by sulforhodamine B assay; format: functional; conditions: NCI-H23, 48 h, read-out: Activity
NCI-H460 = experiment: Growth inhibition of human NCI-H460 cells after 48 hrs by sulforhodamine B assay; format: functional; conditions: NCI-H460, 48 h
A498 = experiment: Growth inhibition of human A498 cells after 48 hrs by sulforhodamine B assay; format: functional, cell-based; conditions: A498, 48 h
NCI-H226 [4] = experiment: Growth inhibition of human NCI-H226 cells after 48 hrs by sulforhodamine B assay; format: functional; conditions: NCI-H226, 48 h
NCI-H226 [5] = experiment: Growth inhibition of human NCI-H226 cells assessed as cell growth at 10 uM after 48 hrs by sulforhodamine B assay; format: functional; conditions: NCI-H226, 48 h, read-out: Activity
A549 [6] = experiment: Growth inhibition of human A549/ATCC cells after 48 hrs by sulforhodamine B assay; format: functional; conditions: A549, 48 h
HT-29 [7] = experiment: Growth inhibition of human HT-29 cells after 48 hrs by sulforhodamine B assay; format: functional; conditions: HT-29, 48 h
HL-60(TB) = experiment: Growth inhibition of human HL-60(TB) cells assessed as cell growth at 10 uM after 48 hrs by sulforhodamine B assay; format: functional; conditions: HL-60, 48 h, read-out: Activity
MCF7 = experiment: Growth inhibition of human MCF7 cells after 48 hrs by sulforhodamine B assay; format: functional; conditions: MCF7, 48 h
MDA-MB-468 = experiment: Growth inhibition of human MDA-MB-468 cells after 48 hrs by sulforhodamine B assay; format: functional, cell-based; conditions: MDA-MB-468, 48 h
PC-3 = experiment: Growth inhibition of human PC3 cells assessed as cell growth at 10 uM after 48 hrs by sulforhodamine B assay; format: functional; conditions: PC-3, 48 h, read-out: Activity
ACHN = experiment: Growth inhibition of human ACHN cells after 48 hrs by sulforhodamine B assay; format: functional
OVCAR-3 = experiment: Growth inhibition of human OVCAR3 cells after 48 hrs by sulforhodamine B assay; format: functional, cell-based; conditions: OVCAR-3, 48 h
[8] = Growth inhibition of human HCC2998 cells after 48 hrs by sulforhodamine B assay; format: functional; conditions: HCC 2998, 48 h
U-251 [9] = experiment: Growth inhibition of human U251 cells assessed as cell growth at 10 uM after 48 hrs by sulforhodamine B assay; format: functional; conditions: U-251, 48 h, read-out: Activity
A549 [10] = experiment: Growth inhibition of human A549/ATCC cells assessed as cell growth at 10 uM after 48 hrs by sulforhodamine B assay; format: functional; conditions: A549, 48 h, read-out: Activity
HOP-62 = experiment: Growth inhibition of human HOP62 cells assessed as cell growth at 10 uM after 48 hrs by sulforhodamine B assay; format: functional; conditions: HOP-62, 48 h, read-out: Activity
SNB-75 = experiment: Growth inhibition of human SNB75 cells after 48 hrs by sulforhodamine B assay; format: functional; conditions: SNB-75, 48 h
IGROV-1 = experiment: Growth inhibition of human IGROV1 cells after 48 hrs by sulforhodamine B assay; format: functional; conditions: IGROV-1, 48 h
SK-MEL-28 = experiment: Growth inhibition of human SK-MEL-28 cells assessed as cell growth at 10 uM after 48 hrs by sulforhodamine B assay; format: functional; conditions: SK-MEL-28, 48 h, read-out: Activity
HOP-92 = experiment: Growth inhibition of human HOP92 cells after 48 hrs by sulforhodamine B assay; format: functional, cell-based; conditions: HOP-92, 48 h
SF-295 = experiment: Growth inhibition of human SF295 cells after 48 hrs by sulforhodamine B assay; format: functional, cell-based; conditions: SF-295, 48 h
[11] = read-out: LC50 (the source's name)

SMILES: COc1cc(-c2nn(-c3cccc(NC(=O)c4ccc(N5CCOCC5)c(C(F)(F)F)c4)c3)cc2-c2ccncc2)ccc1Cl
- growth at 10 µM (SK-OV-3): 1.88%
- growth at 10 µM (HCT-116): 8.35%
- GI50 (T47D): 686 nM
- TGI (T47D): > 100000 nM
- CC50 (T47D; [11]): > 100000 nM
- GI50 (SW-620): 241 nM
- TGI (SW-620): > 100000 nM
- CC50 (SW-620; [11]): > 100000 nM
- growth at 10 µM (786-0): -3.26%
- growth at 10 µM (HT-29 [1]): -13.3%
- GI50 [2]: 228 nM
- TGI [2]: > 100000 nM
- CC50 [2, 11]: > 100000 nM
- GI50 (U-251 [3]): 399 nM
- LC50 (concentration killing 50% of cells) (U-251 [3]): 60700 nM
- TGI (U-251 [3]): 3950 nM
- GI50 (SF-539): 153 nM
- TGI (SF-539): 497 nM
- growth at 10 µM (UACC-257): 24.3%
- growth at 10 µM (SNB-19): 45.1%
- growth at 10 µM (NCI-H23): 15.6%
- GI50 (NCI-H460): 336 nM
- LC50 (NCI-H460): > 100000 nM
- TGI (NCI-H460): > 100000 nM
- GI50 (A498): 227 nM
- IC50 (A498): 230 nM
- TGI (A498): 1080 nM
- CC50 (A498; [11]): > 100000 nM
- GI50 (NCI-H226 [4]): 427 nM
- TGI (NCI-H226 [4]): > 100000 nM
- CC50 (NCI-H226 [4]; [11]): > 100000 nM
- growth at 10 µM (NCI-H226 [5]): 42.5%
- GI50 (A549 [6]): 315 nM
- LC50 (concentration killing 50% of starting cells) (A549 [6]): > 100000 nM
- TGI (A549 [6]): > 100000 nM
- GI50 (HT-29 [7]): 380 nM
- TGI (HT-29 [7]): 1520 nM
- CC50 (HT-29 [7]; [11]): > 100000 nM
- growth at 10 µM (HL-60(TB)): -8.08%
- GI50 (MCF7): 285 nM
- LC50 (MCF7): > 100000 nM
- TGI (MCF7): > 1000 nM
- GI50 (MDA-MB-468): 183 nM
- IC50 (MDA-MB-468): 180 nM
- TGI (MDA-MB-468): 781 nM
- CC50 (MDA-MB-468; [11]): 5530 nM
- growth at 10 µM (PC-3): 8.17%
- GI50 (ACHN): 564 nM
- TGI (ACHN): > 100000 nM
- CC50 (ACHN; [11]): > 100000 nM
- GI50 (OVCAR-3): 222 nM
- IC50 (OVCAR-3): 220 nM
- TGI (OVCAR-3): 1030 nM
- CC50 (OVCAR-3; [11]): > 100000 nM
- GI50 [8]: 1070 nM
- TGI [8]: 5020 nM
- CC50 [8, 11]: > 100000 nM
- growth at 10 µM (U-251 [9]): 2.49%
- growth at 10 µM (A549 [10]): 3.58%
- growth at 10 µM (HOP-62): 29.4%
- GI50 (SNB-75): 212 nM
- LC50 (lethal concentration, 50% net cell kill) (SNB-75): > 100000 nM
- GI50 (IGROV-1): 437 nM
- LC50 (concentration killing 50% of cells) (IGROV-1): > 100000 nM
- TGI (IGROV-1): 6790 nM
- growth at 10 µM (SK-MEL-28): 28.4%
- GI50 (HOP-92): 124 nM
- IC50 (HOP-92): 120 nM
- LC50 (HOP-92): > 100000 nM
- TGI (HOP-92): 813 nM
- GI50 (SF-295): 150 nM
- IC50 (SF-295): 150 nM
- TGI (SF-295): 1150 nM
- CC50 (SF-295; [11]): 6310 nM
